# Test results published in PubChem BioAssay (NCI).
#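 96-well plates; 48 h exposure; 5 concentrations. Endpoints by linear interpolation between flanking doses. Not reached: highest tested concentration assigned. TGI denotes the concentration required for complete inhibition of growth.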
# Assays:
# Assay in all cases: growth of human tumour cells (NCI), 48 h
# M14 melanoma = system: M14 melanoma
# UACC-257 melanoma = system: UACC-257 melanoma
# SNB-75 CNS = system: SNB-75 CNS
# T-47D breast = system: T-47D breast
# EKVX NSCLC = system: EKVX NSCLC
# SK-MEL-5 melanoma = system: SK-MEL-5 melanoma
# NCI-H226 lung = system: NCI-H226 lung
# SK-MEL-28 melanoma = system: SK-MEL-28 melanoma
# MDA-MB-435 = system: MDA-MB-435
Compound,TGI (M14 melanoma) [µM],TGI (UACC-257 melanoma) [µM],TGI (SNB-75 CNS) [µM],TGI (T-47D breast) [µM],TGI (EKVX NSCLC) [µM],TGI (SK-MEL-5 melanoma) [µM],TGI (NCI-H226 lung) [µM],TGI (SK-MEL-28 melanoma) [µM],TGI (MDA-MB-435) [µM]
CCOC(=O)c1c(C)n(-c2ccc(C)cc2)c2c1cc(O)c1[nH]c3c(c12)CCCC3,42.6,56.7,12.4,> 100,99.7,24.3,60,33.1,62.2
C=C1C(=O)OC2C3C(=C)[C@@H](OC(C)=O)CC3C(C)=CC(OC(=O)C(C)(O)C(C)OC(C)=O)[C@@H]12 (some centres undefined),19.7,23.2,28.4,39,30.2,20.1,48.4,27.2,28.3
CCOC(=O)/C(C#N)=N\Nc1ccc(-n2c(C)nc3ccc(Br)cc3c2=O)cc1,> 100,> 100,> 100,> 100,> 100,> 100,> 100,> 100,> 100
COc1ccc(N=C/C=C/C(=C/COC(C)=O)OC(C)=O)cc1,> 100,87.2,> 100,> 100,> 100,76.6,> 100,65.9,> 100
COC(=O)[C@H]1[C@H](OC(=O)[C@@H](OC)c2ccccc2)ON2CC[C@@H](OC(=O)c3ccccc3)[C@H]12,> 100,> 100,65.1,> 100,> 100,> 100,> 100,> 100,> 100
Nc1nc(Cl)c(N)c(NCC2(CO)CC(O)C2)n1 (centres undefined),> 100,> 100,> 100,> 100,> 100,> 100,> 100,> 100,> 100
COc1ccc2c(c1)CC[C@@H]1C2CC[C@]2(C)C(=O)N(C)C(=O)CC12 (some centres undefined),> 100,> 100,> 100,> 100,> 100,> 100,> 100,> 100,> 100
CC(C)=CCc1c(O)c(CC=C(C)C)c2oc3c(c(=O)c2c1O)C(C=C(C)C)Oc1cc(O)ccc1-3 (centres undefined),21,26.9,14.1,15.4,14.5,21.5,49.8,21.5,13.7
COc1cc(O)c2c(=O)cc(C3(OC(C)=O)C=CC(OC4OC(CO)C(O)C(O)C4O)C=C3)oc2c1 (centres undefined),> 100,> 100,> 100,> 100,> 100,> 100,> 100,> 100,> 100
COC(=O)c1c(OC(C)=O)ccc2c1c1c(n2Cc2ccccc2)C(=O)c2ccccc2C1=O,47.5,26.8,52.4,56.3,48.3,28.1,49.3,41.2,35.8
O=C(CN1c2ccccc2Sc2ccccc21)n1cnc2ccccc21,> 100,> 100,> 100,> 100,> 100,> 100,> 100,> 100,> 100
Cc1ccc2c(c1)C(=O)c1ccc(C)nc1C2=O,> 100,48.9,> 100,> 100,> 100,26.7,> 100,> 100,37.6
CCC/C(Cl)=N/OC(=O)Nc1cccc(F)c1,14.7,28,28.3,6.34,12.2,20.4,27.9,9.82,24.8
CSC(=S)Nc1cc(C)ccn1,> 100,> 100,> 100,> 100,> 100,46.5,> 100,> 100,> 100
NC(=S)NS(=O)(=O)c1ccc(F)cc1,> 100,> 100,> 100,> 100,> 100,> 100,> 100,> 100,> 100
O=Cc1cc(O)ccc1Br,> 92.2,> 91.1,> 100,> 100,> 100,98.2,> 91.7,> 100,9.77
N#Cc1c(-c2ccccc2)cc(Nc2ccc(F)cc2)n2c1nc1ccccc12,> 100,8.78,6.76,19,> 29.1,2.73,> 24,> 100,> 100
COC(=O)[C@@H](COC(=O)/C=C/c1ccc(OC(C)=O)c(OC(C)=O)c1)NC(=O)/C=C/c1ccc(OC(C)=O)c(OC(C)=O)c1,73.8,> 100,> 100,34.9,71.5,30,> 100,> 100,> 100
O=C(CCl)Nc1ccc(-c2nc3ccccc3s2)cc1,4.98,11.6,11,5.59,17.1,3.17,5.11,9.66,12.2
COc1cc([C@@H]2c3cc4c(cc3[C@@H](N=Cc3ccc(C(=O)O[C@H]5C[C@H]6OC[C@@]6(OC(C)=O)[C@H]6[C@H](OC(=O)c7ccccc7)[C@]7(O)C[C@H](OC(=O)[C@H](OC(=O)c8ccc(C=N[C@@H]9c%10cc%11c(cc%10[C@@H](c%10cc(OC)c(O)c(OC)c%10)[C@H]%10C(=O)OC[C@@H]%109)OCO%11)cc8)[C@@H](NC(=O)c8ccccc8)c8ccccc8)C(C)=C([C@@H](OC(C)=O)C(=O)[C@]56C)C7(C)C)cc3)C3COC(=O)C32)OCO4)cc(C)c1O (some centres undefined),> 21,> 50,> 50,> 50,> 35.2,> 50,> 50,> 50,9.32
COc1ccc(-n2c(-c3ccccc3)cc(-c3cccs3)c2-c2cccs2)cc1,> 100,> 100,> 100,> 100,> 100,> 100,> 100,> 100,> 100
